Measured values taken from publication PMC6931124, “NPY1R-targeted peptide-mediated delivery of a dual PPARα/γ agonist to adipocytes enhances adipogenesis and prevents diabetes progression” (Molecular Metabolism, 2019).

Columns and labels:
Serum leptin = assay type: in vivo; settings: db/db mice, 2.5 μmol/kg/day, 8 days; ELISA; n = 5
Description: All of the experiments were performed according to the animal ethical laws of the state Saxony, Germany, and were approved by the local animal ethics review board (Landesdirektion Sachsen, Leipzig, Germany). Female db/db mice 12–15 weeks of age were purchased from Taconic (Denmark) and housed in groups of 5 in temperature- and humidity-controlled facilities in a 12 h:12 h light–dark cycle and had free access to tap water and food (regular chow, Sniff, Soest, Germany). Three out of seven groups served as controls (N = 15, see Table 1). The 5 db/db mice were untreated and 10 db/db mice were vehicle treated either orally or intraperitoneally (i.p.). One additional group (n = 5) of lean C57BL/6NTac mice was used as a metabolically healthy control group. […]
Serum insulin (mouse insulin ELISA, Mercodia, Uppsala, Sweden), adiponectin (mouse adiponectin ELISA, AdipoGen, San Diego, CA, USA), leptin (mouse leptin ELISA, Crystal Chem, Downers Grove, IL, USA), and Mcp-1 (mouse/rat CCL2/JE/Mcp-1 Quantikine ELISA, R&D Systems, Minneapolis, MN, USA) levels were analyzed via ELISA according to the manufacturer's instructions. Serum concentrations of TG, FFA, and cholesterol were measured by an automatic chemical analyzer at the Institute of Laboratory Medicine and Clinical Chemistry.

[1] = volunteers, ref [111]; cited from earlier work
Excerpt: Thus, the observed anti-diabetic effects are assumed to result from adipocyte-specific PPARγ-mediate ...

[2] = design: method as in Ljung et al. [74]; settings: ref Ljung et al. [74]; cited from earlier work
Excerpt: In the present study, we used db/db mice to evaluate the anti-diabetic potency of the peptide conjugate, as these mice are known to develop severe insulin resistance and hypertriglyceridemia.

3T3-L1 preadipocytes = test: AdipoRed adipogenesis assay, 3T3-L1; assay type: cell-based, murine; settings: 24 h; tesa 10/25/100 μM, tesa-NPY 100 μM; AdipoRed fluorescence, DMSO = 100%; n = 3 in quadruplicate
Description: (§1) 3T3-L1 or SGBS cells were seeded into 96-well plates and grown to complete confluency (set as day 0). On day 2 of confluence, the 3T3-L1 cells were differentiated by DMEM High Glucose Medium supplemented with 10% (v/v) not-heat inactivated FCS, 0.5 mM IBMX, 167 nM human insulin, and 1 μM dexamethasone (differentiation medium). On day 4, the medium was replaced by insulin medium (DMEM High Glucose Medium, 10% not-heat inactivated FCS, and 167 nM human insulin). On day 6, the medium was changed to standard culture medium and changed every other day until full differentiation was achieved (on day 8). The SGBS cells were differentiated as previously described. […] On day 4, the medium was replaced by 3FC medium (DMEM High Glucose Medium and Hams F12 (1:1 (v/v))) without FCS and supplemented with 0.01 mg human apo-transferrin, 20 nM human insulin, triiodo-L-thyronine, and 100 nM hydrocortisone. The medium was changed every second day until full differentiation was achieved (day 10). […]
(§2) (A, B) Cells were differentiated and stimulated according to the protocol depicted for 3T3-L1 (A) and for SGBS (B). […] (E,F) Expression of adipocyte-enriched genes in 3T3-L1 (E) or SGBS (F) adipocytes analyzed by qPCR. […] Statistical significances refer to DMSO-treated cells and were determined by one-way analysis of variance (ANOVA) followed by Dunnett's multiple comparison test, *≤0.05, **p ≤ 0.01, ***p ≤ 0.001.

SGBS preadipocytes = test: AdipoRed adipogenesis assay, SGBS; assay type: cell-based, human; settings: 24 h; tesa 10/25/100 μM, tesa-NPY 100 μM; AdipoRed fluorescence, DMSO = 100%; n = 3 in quadruplicate
Description: as §1, §2

CCO[C@@H](Cc1ccc(OCCc2ccc(OS(C)(=O)=O)cc2)cc1)C(=O)O [tesa, tesaglitazar]
serum leptin concentration (Serum leptin): no significant effect
absorption after oral dosing [1]: rapidly and completely absorbed after oral dosing
weight gain in treated animals [2]: does not lead to weight gain in treated animals
adipogenesis (triglyceride content), 3T3-L1 (3T3-L1 preadipocytes): enhanced adipogenesis in both cell lines
adipogenesis (triglyceride content), SGBS (SGBS preadipocytes): enhanced adipogenesis in both cell lines
